In USRE39591E1, “6-O-substituted ketolides having antibacterial activity” (Abbott Laboratories, priority 1996, dated 2007):
Converted amounts (≈) assume the structure as drawn.

Test system: up to 32 different microorganisms
Experiment: in vitro antibacterial activity (MIC), agar dilution on Brain Heart Infusion (BHI) agar with Steers replicator
Assay type: cell-based
Settings: unit assumed
Method in brief: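 Erythromycin A served as the same-class reference for test-to-test comparability. Test compound was tested over twelve successive dilutions in BHI agar; plates were incubated 20 to 24 hours at 35°-37° C, with MIC taken as the lowest concentration showing no growth, slight haze, or sparse colonies.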

[1] = Candida albicans CCH 442 (code TT)
[2] = Enterococcus faecism ATCC 8043 (code II)
[3] = Escherichia coli DC-2 (code SS)
[4] = Escherichia coli JUHL (code QQ)
[5] = Micrococcus luteus ATCC 4698 (code PP)
[6] = Micrococcus luteus ATCC 9341 (code OO)
[7] = Mycobacterium smegmatis ATCC 114 (code UU)
[8] = Nocardia Asteroides ATCC9970 (code VV)
[9] = Staphylococcus aureus 1775 (code GG)
[10] = Staphylococcus aureus A5177 (code BB)
[11] = Staphylococcus aureus A-5278 (code CC)
[12] = Staphylococcus aureus ATCC 6538P (code AA)
[13] = Staphylococcus aureus CMX 553 (code FF)
[14] = Staphylococcus aureus CMX 642A (code DD)
[15] = Staphylococcus aureus NCTC10649M (code EE)
[16] = Staphylococcus epidermidis 3519 (code HH)
[17] = Streptococcus agalactiae CMX 508 (code KK)
[18] = Streptococcus bovis A-5169 (code JJ)
[19] = Streptococcus pyogenes 930 (code MM)
[20] = Streptococcus pyogenes EES61 (code LL)
[21] = Streptococcus pyogenes PIU 2548 (code NN)

## CCC1OC(=O)C(C)C(=O)C(C)C(OC2OC(C)CC(N(C)C)C2O)C(C)(OCc2cccc(I)c2)CC(C)C(=O)C(C)C2NC(=O)OC12C (stereo not shown) [Example 285, Compound of Formula (IX): L is CO, T is NH2, R is —CH2-(3-iodophenyl)]
Organism code AA
  MIC: 3.1 µg/mL
Organism code BB
  MIC: 3.1 µg/mL
Organism code CC
  MIC: > 100 µg/mL
Organism code DD
  MIC: 3.1 µg/mL
Organism code EE
  MIC: 3.1 µg/mL
Organism code FF
  MIC: 3.1 µg/mL
Organism code GG
  MIC: > 100 µg/mL
Organism code HH
  MIC: 3.1 µg/mL
Organism code II
  MIC: 0.39 µg/mL
Organism code JJ
  MIC: 0.2 µg/mL
Organism code KK
  MIC: 0.2 µg/mL
Organism code LL
  MIC: 0.05 µg/mL
Organism code MM
  MIC: 100 µg/mL
Organism code NN
  MIC: 0.78 µg/mL
Organism code OO
  MIC: 0.39 µg/mL
Organism code PP
  MIC: 0.39 µg/mL
Organism code QQ
  MIC: > 100 µg/mL
Organism code RR
  MIC: 12.5 µg/mL
Organism code SS
  MIC: > 100 µg/mL
Organism code TT
  MIC: > 100 µg/mL
Organism code UU
  MIC: 6.2 µg/mL
Organism code VV
  MIC: 1.56 µg/mL
Organism code WW
  MIC: > 128 µg/mL
Organism code XX
  MIC: 0.25 µg/mL
Organism code YY
  MIC: 0.25 µg/mL
Organism code ZZ
  MIC: 64 µg/mL
Organism code ZZA
  MIC: 1 µg/mL

## CC[C@H]1OC(=O)[C@H](C)C(=O)[C@H](C)[C@@H](O[C@@H]2O[C@H](C)C[C@H](N(C)C)[C@H]2O)[C@@](C)(OCC=NOCc2ccc3ccccc3n2)C[C@@H](C)C(=O)[C@H](C)[C@H]2NC(=O)O[C@@]21C [Example 232, Compound of Formula (IX): L is CO, T is NH, R is —CH2CH═NOCH2(2-quinolyl)]
Organism code AA
  MIC: 0.1 µg/mL
Organism code BB
  MIC: 0.1 µg/mL
Organism code CC
  MIC: > 100 µg/mL
Organism code DD
  MIC: 0.2 µg/mL
Organism code EE
  MIC: 0.2 µg/mL
Organism code FF
  MIC: 0.1 µg/mL
Organism code GG
  MIC: > 100 µg/mL
Organism code HH
  MIC: 0.2 µg/mL
Organism code II
  MIC: 0.02 µg/mL
Organism code JJ
  MIC: 0.02 µg/mL
Organism code KK
  MIC: 0.02 µg/mL
Organism code LL
  MIC: 0.02 µg/mL
Organism code MM
  MIC: > 100 µg/mL
Organism code NN
  MIC: 0.2 µg/mL
Organism code OO
  MIC: 0.02 µg/mL
Organism code PP
  MIC: 0.2 µg/mL
Organism code QQ
  MIC: 25 µg/mL
Organism code RR
  MIC: 0.39 µg/mL
Organism code SS
  MIC: > 100 µg/mL
Organism code TT
  MIC: > 100 µg/mL
Organism code UU
  MIC: 0.39 µg/mL
Organism code VV
  MIC: 0.05 µg/mL
Organism code WW
  MIC: 2 µg/mL
Organism code XX
  MIC: 0.03 µg/mL
Organism code YY
  MIC: 0.03 µg/mL
Organism code ZZ
  MIC: > 128 µg/mL
Organism code ZZA
  MIC: 0.5 µg/mL

## CC[C@H]1OC(=O)[C@H](C)C(=O)[C@H](C)[C@@H](O[C@@H]2O[C@H](C)C[C@H](N(C)C)[C@H]2O)[C@@](C)(OCC=Cc2ccc3ncc(Br)cc3c2)C[C@@H](C)C(=O)[C@H](C)[C@H]2NC(=O)O[C@@]21C [Example 219, R is —CH2CH═CH-(3-bromo-6-quinolyl)]
Organism code AA
  MIC: 0.2 µg/mL (≈ 0.237 µM)
Organism code BB
  MIC: 0.2 µg/mL (≈ 0.237 µM)
Organism code CC
  MIC: 100 µg/mL (≈ 118 µM)
Organism code DD
  MIC: 0.2 µg/mL (≈ 0.237 µM)
Organism code EE
  MIC: 0.2 µg/mL (≈ 0.237 µM)
Organism code FF
  MIC: 0.2 µg/mL (≈ 0.237 µM)
Organism code GG
  MIC: 100 µg/mL (≈ 118 µM)
Organism code HH
  MIC: 0.2 µg/mL (≈ 0.237 µM)
Organism code II
  MIC: 0.05 µg/mL (≈ 0.0592 µM)
Organism code JJ
  MIC: ≤ 0.005 µg/mL
Organism code KK
  MIC: 0.02 µg/mL (≈ 0.0237 µM)
Organism code LL
  MIC: 0.02 µg/mL (≈ 0.0237 µM)
Organism code MM
  MIC: 3.1 µg/mL (≈ 3.67 µM)
Organism code NN
  MIC: 0.2 µg/mL (≈ 0.237 µM)
Organism code OO
  MIC: 0.05 µg/mL (≈ 0.0592 µM)
Organism code PP
  MIC: 0.2 µg/mL (≈ 0.237 µM)
Organism code QQ
  MIC: 100 µg/mL (≈ 118 µM)
Organism code RR
  MIC: 0.78 µg/mL (≈ 0.923 µM)
Organism code SS
  MIC: > 100 µg/mL
Organism code TT
  MIC: > 100 µg/mL
Organism code UU
  MIC: 0.39 µg/mL (≈ 0.462 µM)
Organism code VV
  MIC: 0.05 µg/mL (≈ 0.0592 µM)
Organism code WW
  MIC: 2 µg/mL (≈ 2.37 µM)
Organism code XX
  MIC: 0.03 µg/mL (≈ 0.0355 µM)
Organism code YY
  MIC: 0.03 µg/mL (≈ 0.0355 µM)
Organism code ZZ
  MIC: 2 µg/mL (≈ 2.37 µM)
Organism code ZZA
  MIC: 0.25 µg/mL (≈ 0.296 µM)

## CC[C@H]1OC(=O)[C@H](C)C(=O)[C@H](C)[C@@H](O[C@@H]2O[C@H](C)C[C@H](N(C)C)[C@H]2O)[C@@](C)(OCC=NO)C[C@@H](C)C(=O)[C@H](C)[C@@H](O)[C@]1(C)O [Example 5, Compound of Formula (VIII): X is O, R is —CH2CH═NOH]
[1]
  MIC: > 100 µg/mL
[2]
  MIC: 6.2 µg/mL
[3]
  MIC: > 100 µg/mL
[4]
  MIC: > 100 µg/mL
Escherichia coli SS (code RR)
  MIC: 6.2 µg/mL
Haemophilis influenzae DILL AMP R (code WW)
  MIC: > 128 µg/mL
[5]
  MIC: 6.2 µg/mL
[6]
  MIC: 0.78 µg/mL
[7]
  MIC: > 100 µg/mL
[8]
  MIC: 6.2 µg/mL
[9]
  MIC: > 100 µg/mL
[10]
  MIC: 6.2 µg/mL
[11]
  MIC: > 100 µg/mL
[12]
  MIC: 6.2 µg/mL
[13]
  MIC: 12.5 µg/mL
[14]
  MIC: 12.5 µg/mL
[15]
  MIC: 12.5 µg/mL
[16]
  MIC: 6.2 µg/mL
Streptococcus Pneumonia 5649 (code ZZA)
  MIC: 16 µg/mL
Streptococcus Pneumonia 5979 (code ZZ)
  MIC: > 128 µg/mL
Streptococcus Pneumonia ATCC6303 (code XX)
  MIC: 8 µg/mL
Streptococcus Pneumonia GYR 1171 (code YY)
  MIC: 4 µg/mL
[17]
  MIC: 1.56 µg/mL
[18]
  MIC: 1.56 µg/mL
[19]
  MIC: > 100 µg/mL
[20]
  MIC: 3.1 µg/mL
[21]
  MIC: 6.2 µg/mL

## C=CCOC1(C)CC(C)C(=NO)C(C)C(O)C(C)(O)C(CC)OC(=O)C(C)C(=O)C(C)C1OC1OC(C)CC(N(C)C)C1O (stereo not shown) [Example 2, Compound of Formula (VIII): X is NOH, R is allyl]
[1]
  MIC: > 100 µg/mL
[2]
  MIC: 6.2 µg/mL
[3]
  MIC: > 100 µg/mL
[4]
  MIC: > 100 µg/mL
Escherichia coli SS (code RR)
  MIC: 3.1 µg/mL
[5]
  MIC: 3.1 µg/mL
[6]
  MIC: 1.56 µg/mL
[7]
  MIC: 25 µg/mL
[8]
  MIC: 0.2 µg/mL
[9]
  MIC: > 100 µg/mL
[10]
  MIC: 3.1 µg/mL
[11]
  MIC: > 100 µg/mL
[12]
  MIC: 3.1 µg/mL
[13]
  MIC: 3.1 µg/mL
[14]
  MIC: 3.1 µg/mL
[15]
  MIC: 1.56 µg/mL
[16]
  MIC: 6.2 µg/mL
[17]
  MIC: 1.56 µg/mL
[18]
  MIC: 3.1 µg/mL
[19]
  MIC: > 100 µg/mL
[20]
  MIC: 3.1 µg/mL
[21]
  MIC: 3.1 µg/mL

## CCC1OC(=O)C(C)C(=O)C(C)C(OC2OC(C)CC(N(C)C)C2O)C(C)(OCC=Cc2cccc3c([N+](=O)[O-])cccc23)CC(C)C(=O)C(C)C2NC(=O)OC12C (stereo not shown) [Example 281, Compound of Formula (IX): L is CO, T is NH2, R is —CH2CH═CH-(5-nitronaphthyl)]
Organism code AA
  MIC: 0.78 µg/mL
Organism code BB
  MIC: 0.78 µg/mL
Organism code CC
  MIC: > 100 µg/mL
Organism code DD
  MIC: 0.78 µg/mL
Organism code EE
  MIC: 0.78 µg/mL
Organism code FF
  MIC: 0.78 µg/mL
Organism code GG
  MIC: > 100 µg/mL
Organism code HH
  MIC: 0.78 µg/mL
Organism code II
  MIC: 0.39 µg/mL
Organism code JJ
  MIC: 0.05 µg/mL
Organism code KK
  MIC: 0.1 µg/mL
Organism code LL
  MIC: 0.1 µg/mL
Organism code MM
  MIC: 50 µg/mL
Organism code NN
  MIC: 0.39 µg/mL
Organism code OO
  MIC: 0.2 µg/mL
Organism code PP
  MIC: 0.78 µg/mL
Organism code QQ
  MIC: > 100 µg/mL
Organism code RR
  MIC: 3.1 µg/mL
Organism code SS
  MIC: > 100 µg/mL
Organism code TT
  MIC: > 100 µg/mL
Organism code UU
  MIC: 3.1 µg/mL
Organism code VV
  MIC: 3.1 µg/mL
Organism code WW
  MIC: 32 µg/mL
Organism code XX
  MIC: 0.25 µg/mL
Organism code YY
  MIC: 0.25 µg/mL
Organism code ZZ
  MIC: 64 µg/mL
Organism code ZZA
  MIC: 1 µg/mL
